Measured values published in PubChem BioAssay AID248 (DTP/NCI, 2004).
Inconclusive results and toxic doses are left out. Rule as the data show it: active = T/C of 150% or more; inactive = T/C below 125%.

Tested on: L1210 leukemia ip in BDF1 mice, survival T/C
Assay: NCI In Vivo Anticancer Drug Screen. Data for tumor model L1210 Leukemia (intraperitoneal) in B6D2F1 (BDF1) mice
Conditions: endpoint: mean survival time, higher = longer survival
In short: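 Value reflects the ratio of survival in compound-treated mice to survival in vehicle-treated controls, with both groups carrying the same transplanted tumor.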

[1] = dose: 100.0 mg/kg/injection, schedule: Q01DX009 (ip), vehicle: saline
[2] = dose: 100.0 mg/kg/injection, schedule: Q04DX003 (ip), vehicle: saline
[3] = dose: 200.0 mg/kg/injection, schedule: Q01DX009 (ip), vehicle: saline
[4] = dose: 200.0 mg/kg/injection, schedule: Q04DX003 (ip), vehicle: saline
[5] = dose: 400.0 mg/kg/injection, schedule: Q01DX009 (ip), vehicle: saline
[6] = dose: 400.0 mg/kg/injection, schedule: Q04DX003 (ip), vehicle: saline
[7] = dose: 100.0 mg/kg/injection, schedule: Q01DX009 (ip), vehicle: saline with Tween-80
[8] = dose: 100.0 mg/kg/injection, schedule: Q04DX003 (ip), vehicle: other
[9] = dose: 200.0 mg/kg/injection, schedule: Q01DX009 (ip), vehicle: saline with Tween-80
[10] = dose: 200.0 mg/kg/injection, schedule: Q04DX003 (ip), vehicle: other
[11] = dose: 400.0 mg/kg/injection, schedule: Q01DX009 (ip), vehicle: saline with Tween-80
[12] = dose: 400.0 mg/kg/injection, schedule: Q04DX003 (ip), vehicle: other
[13] = dose: 100.0 mg/kg/injection, schedule: Q01DX009 (ip), vehicle: Klucel (hydroxypropylcellulose) (HPC)
[14] = dose: 100.0 mg/kg/injection, schedule: Q04DX003 (ip), vehicle: Klucel (hydroxypropylcellulose) (HPC)
[15] = dose: 200.0 mg/kg/injection, schedule: Q01DX009 (ip), vehicle: Klucel (hydroxypropylcellulose) (HPC)
[16] = dose: 200.0 mg/kg/injection, schedule: Q04DX003 (ip), vehicle: Klucel (hydroxypropylcellulose) (HPC)
[17] = dose: 400.0 mg/kg/injection, schedule: Q01DX009 (ip), vehicle: Klucel (hydroxypropylcellulose) (HPC)
[18] = dose: 400.0 mg/kg/injection, schedule: Q04DX003 (ip), vehicle: Klucel (hydroxypropylcellulose) (HPC)
[19] = dose: 25.0 mg/kg/injection, schedule: Q04DX003 (ip), vehicle: saline with Tween-80
[20] = dose: 50.0 mg/kg/injection, schedule: Q04DX003 (ip), vehicle: saline with Tween-80
[21] = dose: 100.0 mg/kg/injection, schedule: Q04DX003 (ip), vehicle: saline with Tween-80
[22] = dose: 200.0 mg/kg/injection, schedule: Q04DX003 (ip), vehicle: saline with Tween-80
[23] = dose: 400.0 mg/kg/injection, schedule: Q04DX003 (ip), vehicle: saline with Tween-80
[24] = dose: 100.0 mg/kg/injection, schedule: Q01DX001 (ip), vehicle: Klucel (hydroxypropylcellulose) (HPC)
[25] = dose: 200.0 mg/kg/injection, schedule: Q01DX001 (ip), vehicle: Klucel (hydroxypropylcellulose) (HPC)
[26] = dose: 400.0 mg/kg/injection, schedule: Q01DX001 (ip), vehicle: Klucel (hydroxypropylcellulose) (HPC)

Measured: T/C

C[C@@]1(O)CCCC[C@H]1O
inactive: [1] 95 % of control | [2] 106 % of control | [3] 105 % of control | [4] 103 % of control | [5] 96 % of control | [6] 92 % of control

COc1ccc(/C=N/NC(=O)c2ccc(N)cc2)c(OC)c1
inactive: dose: 100.0 mg/kg/injection, schedule: Q04DX002 (ip), vehicle: saline 101 % of control | dose: 200.0 mg/kg/injection, schedule: Q04DX002 (ip), vehicle: saline 108 % of control | dose: 400.0 mg/kg/injection, schedule: Q04DX002 (ip), vehicle: saline 97 % of control

C=C(Cl)CN(CCCC(=O)O)c1cccc(OC)c1
inactive: [7] 89 % of control | [8] 100 % of control | [9] 95 % of control | [10] 98 % of control | [11] 97 % of control | [12] 100 % of control

CC(=O)c1ccc(C(C)=O)c(OCc2ccccc2)c1
inactive: [13] 101 % of control | [14] 103 % of control | [15] 95 % of control | [16] 98 % of control | [17] 92 % of control | [18] 97 % of control

C1CCC(CC2CCNCC2)CC1
inactive: dose: 12.5 mg/kg/injection, schedule: Q04DX003 (ip), vehicle: saline with Tween-80 105 % of control | [19] 96 % of control | [20] 102 % of control

O=C(/C(=C\Cl)CBr)c1ccccc1
inactive: dose: 12.5 mg/kg/injection, schedule: Q01DX009 (ip), vehicle: saline with Tween-80 88 % of control | dose: 25.0 mg/kg/injection, schedule: Q01DX009 (ip), vehicle: saline with Tween-80 88 % of control | [19] 90 % of control | dose: 50.0 mg/kg/injection, schedule: Q01DX009 (ip), vehicle: saline with Tween-80 90 % of control | [20] 92 % of control | [21] 98 % of control

CCOC(=O)N1Cc2cc3cc(OC)c(OC)cc3nc2C1
inactive: [7] 109 % of control | [21] 106 % of control | [9] 94 % of control | [22] 97 % of control | [11] 108 % of control | [23] 96 % of control

O=C(O)C1C(C(=O)O)C23CC2(C(=O)O)C2(C(=O)O)CCC3=C3CCCC312 (configuration not stated)
inactive: dose: 6.25 mg/kg/injection, schedule: Q01DX009 (ip), vehicle: saline 109 % of control | dose: 6.25 mg/kg/injection, schedule: Q04DX003 (ip), vehicle: saline 104 % of control | dose: 12.5 mg/kg/injection, schedule: Q01DX001 (ip), vehicle: saline 114 % of control | dose: 12.5 mg/kg/injection, schedule: Q01DX009 (ip), vehicle: saline 111 % of control | dose: 12.5 mg/kg/injection, schedule: Q04DX003 (ip), vehicle: saline 104 % of control | dose: 25.0 mg/kg/injection, schedule: Q01DX001 (ip), vehicle: saline 98 % of control | dose: 25.0 mg/kg/injection, schedule: Q04DX003 (ip), vehicle: saline 103 % of control

CCCCN(CCCC)S(=O)(=O)CCl
inactive: dose: 100.0 mg/kg/injection, schedule: Q04DX002 (ip), vehicle: saline with Tween-80 116 % of control | dose: 200.0 mg/kg/injection, schedule: Q04DX002 (ip), vehicle: saline with Tween-80 108 % of control | dose: 400.0 mg/kg/injection, schedule: Q04DX002 (ip), vehicle: saline with Tween-80 105 % of control

CCOc1ccc(/C=N/NC(=O)c2ccc(N=NN(C)C)cc2)cc1
inactive: dose: 75.0 mg/kg/injection, schedule: Q04DX003 (ip), vehicle: Klucel (hydroxypropylcellulose) (HPC) 94 % of control | dose: 150.0 mg/kg/injection, schedule: Q04DX003 (ip), vehicle: Klucel (hydroxypropylcellulose) (HPC) 90 % of control | dose: 300.0 mg/kg/injection, schedule: Q04DX003 (ip), vehicle: Klucel (hydroxypropylcellulose) (HPC) 87 % of control

C/C(N=Nc1ccccc1[N+](=O)[O-])=N\Nc1ccccc1
inactive: dose: 50.0 mg/kg/injection, schedule: Q01DX009 (ip), vehicle: Klucel (hydroxypropylcellulose) (HPC) 95 % of control | [13] 97 % of control | [15] 95 % of control | [17] 95 % of control

NC(=O)NC(N)=S
inactive: [21] 99 % of control | [22] 103 % of control | [23] 103 % of control

Cc1nccn1-c1ccc(N=Cc2ccc(N(CCCl)CCCl)cc2Cl)cc1
inactive: dose: 62.5 mg/kg/injection, schedule: Q04DX002 (ip), vehicle: Klucel (hydroxypropylcellulose) (HPC) 102 % of control | dose: 125.0 mg/kg/injection, schedule: Q04DX002 (ip), vehicle: Klucel (hydroxypropylcellulose) (HPC) 98 % of control | dose: 250.0 mg/kg/injection, schedule: Q04DX002 (ip), vehicle: Klucel (hydroxypropylcellulose) (HPC) 106 % of control

CC(C)NC(=O)OC(C)C
inactive: [14] 96 % of control | [16] 104 % of control | [18] 98 % of control

Cc1cc(N(CCCl)CCCl)ccc1C=Nc1ccc(-c2csc(Cc3ccccc3)n2)c(Cl)c1
inactive: dose: 100.0 mg/kg/injection, schedule: Q01DX001 (sc), vehicle: carboxymethylcellulose (CMC) 100 % of control | dose: 200.0 mg/kg/injection, schedule: Q01DX001 (sc), vehicle: carboxymethylcellulose (CMC) 113 % of control | dose: 400.0 mg/kg/injection, schedule: Q01DX001 (sc), vehicle: carboxymethylcellulose (CMC) 100 % of control

Cc1ccc(S(=O)(=O)Oc2ccc3ccccc3c2)cc1
inactive: [7] 88 % of control | [21] 98 % of control | [22] 86 % of control | [23] 86 % of control

Cc1cc(S(=O)(=O)F)ccc1NC(=O)/C=C/c1ccc([N+](=O)[O-])cc1
inactive: [13] 97 % of control | [17] 92 % of control

O=C(O)c1ccc(NC(Nc2ccc(C(=O)O)cc2)C(=O)c2ccccc2)cc1
inactive: dose: 100.0 mg/kg/injection, schedule: Q01DX001 (ip), vehicle: saline 95 % of control | dose: 200.0 mg/kg/injection, schedule: Q01DX001 (ip), vehicle: saline 89 % of control | dose: 400.0 mg/kg/injection, schedule: Q01DX001 (ip), vehicle: saline 101 % of control

c1ccc(N2CC2)cc1
inactive: [24] 105 % of control | [25] 100 % of control | [26] 96 % of control

O=C(NC/C(Br)=C/Br)C(F)(F)F
inactive: [24] 113 % of control | [14] 90 % of control | [25] 105 % of control | [16] 88 % of control | [26] 105 % of control | [18] 90 % of control

Nc1cccnn1
inactive: [1] 99 % of control | [2] 109 % of control | [3] 99 % of control | [4] 117 % of control | [5] 103 % of control | [6] 120 % of control

C=CCOc1ccc(OCC=C)nn1
inactive: [14] 104 % of control | [16] 97 % of control | [18] 101 % of control

COc1ccc(CN2CCCN(Cc3ccc(OC)cc3OC)C2c2cc([N+](=O)[O-])ccc2O)c(OC)c1
inactive: dose: 50.0 mg/kg/injection, schedule: Q01DX001 (ip), vehicle: carboxymethylcellulose (CMC) 107 % of control | dose: 100.0 mg/kg/injection, schedule: Q01DX001 (ip), vehicle: carboxymethylcellulose (CMC) 98 % of control | dose: 200.0 mg/kg/injection, schedule: Q01DX001 (ip), vehicle: carboxymethylcellulose (CMC) 101 % of control | dose: 400.0 mg/kg/injection, schedule: Q01DX001 (ip), vehicle: carboxymethylcellulose (CMC) 98 % of control

OC1C=C(Br)C2CCC1CC2 (configuration not stated)
inactive: dose: 100.0 mg/kg/injection, schedule: Q01DX009 (ip), vehicle: other 113 % of control | [8] 96 % of control | dose: 200.0 mg/kg/injection, schedule: Q01DX009 (ip), vehicle: other 100 % of control | [10] 107 % of control | dose: 400.0 mg/kg/injection, schedule: Q01DX009 (ip), vehicle: other 92 % of control | [12] 100 % of control
